Results taken from US9206200B2, “N-linked lactam M1 receptor positive allosteric mogulators” (Merck Sharp & Dohme Corp., priority 2011, dated 2015).
Read-outs that look alike come from different tables or passages of the source. Values belong to the compound of their own block, whether it stands above or below them.

Biological target: T1, acetylcholine muscarinic M1 receptor (Homo sapiens, UniProt P11229)
T1 construct: expressed in transfected cells; host or cells: CHOnfat cells (CHO cells with an NFAT reporter) expressing hM1, kept under Geneticin selection
T1 sequence (P11229 1-460): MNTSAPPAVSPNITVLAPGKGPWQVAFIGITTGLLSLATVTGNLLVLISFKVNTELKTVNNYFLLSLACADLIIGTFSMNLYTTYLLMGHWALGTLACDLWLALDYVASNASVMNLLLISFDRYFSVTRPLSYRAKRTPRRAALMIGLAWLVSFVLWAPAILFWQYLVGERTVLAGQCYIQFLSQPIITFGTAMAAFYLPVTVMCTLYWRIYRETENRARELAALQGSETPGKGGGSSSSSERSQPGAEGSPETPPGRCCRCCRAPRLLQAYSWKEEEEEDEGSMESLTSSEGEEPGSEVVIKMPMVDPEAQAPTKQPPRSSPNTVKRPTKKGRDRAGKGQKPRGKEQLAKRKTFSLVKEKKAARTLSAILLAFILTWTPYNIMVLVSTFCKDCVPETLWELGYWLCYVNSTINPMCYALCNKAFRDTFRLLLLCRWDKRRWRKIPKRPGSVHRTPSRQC
Experiment: muscarinic FLIPR assay: intracellular calcium in CHOnfat/hM1 cells, potentiation of EC20 acetylcholine
Type: cell-based
Settings: EC20 acetylcholine (3 nM final)
Method in brief: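 CHOnfat cells stably expressing human M1, Fluo-4AM-loaded, in HBSS with 20 mM HEPES, 2.5 mM probenecid, 1% BSA. Compounds preincubated 4 min (printed "4 mM") before an EC20 acetylcholine challenge (3 nM final). FLIPR intracellular Ca²⁺ signal compared with 3 nM acetylcholine alone to detect potentiation.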

[1] = Table 1, CHOnfat/hM1 cells, FLIPR, read-out: M1 Pot.
[2] = Table 2, CHOnfat/hM1 cells, FLIPR, read-out: M1 Pot.
[3] = Table 3, inflection point calculated from the FLIPR values, read-out: IP Value

Structure (SMILES): N#CC1(c2ccncn2)CCN(Cc2cc3c(c4ccccc24)CN([C@H]2CCCC[C@@H]2O)C3=O)CC1 [Example 51, 1-({2-[(1S,2S)-2-hydroxycyclohexyl]-3-oxo-2,3-dihydro-1H-benzo[e]isoindol-5-yl}methyl)-4-(pyrimidin-4-yl)piperidine-4-carbonitrile]
EC50 [1]: 17 nM

EC50 [2]: 36 nM
Structure (SMILES): CC1c2c(cc(CN3CCN(c4cccnc4)CC3)c3cccnc23)C(=O)N1C1CCCCC1O (stereo not drawn) [Example 164, 8-(2-hydroxycyclohexyl)-9-methyl-5-[(4-pyridin-3-ylpiperazin-1-yl)methyl]-8,9-dihydro-7H-pyrrolo[3,4-h]quinolin-7-one]

Structure (SMILES): Cc1ccnc(C2(C#N)CCN(Cc3cc4c(c5ccccc35)CN([C@H]3CCCC[C@@H]3O)C4=O)CC2)c1 [Example 64, 1-({2-[(1S,2S)-2-hydroxycyclohexyl]-3-oxo-2,3-dihydro-1H-benzo[e]isoindol-5-yl}methyl)-4-(4-methylpyridin-2-yl)piperidine-4-carbonitrile]
EC50 [1]: 9.7 nM

EC50 [2]: 5200 nM
Structure (SMILES): O=C1c2cc(CN3CCCC3)c3cccnc3c2CN1C1CCCCC1O (stereo not drawn) [Example 97, 8-(2-hydroxycyclohexyl)-5-(pyrrolidin-1-ylmethyl)-8,9-dihydro-7H-pyrrolo[3,4-h]quinolin-7-one]

EC50 [2]: 590 nM
Structure (SMILES): COc1ccc(N2CCN(Cc3cc4c(c5ncccc35)C(C)N(C3CCCCC3O)C4=O)CC2)cc1 (stereo not drawn) [Example 169, 8-(2-hydroxycyclohexyl)-5-{[4-(4-methoxyphenyl)piperazin-1-yl]methyl}-9-methyl-8,9-dihydro-7H-pyrrolo[3,4-h]quinolin-7-one]

EC50 [3]: 147 nM
Structure (SMILES): O=C1c2cc(CN3CCC(F)(F)CC3)c3cccnc3c2CN1[C@H]1CCOC[C@@H]1O [Example 7, 1,5-Anhydro-2,3-dideoxy-3-{5-[(4,4-difluoropiperidin-1-yl)methyl]-7-oxo-7,9-dihydro-8H-pyrrolo[3,4-h]quinolin-8-yl}-L-threo-pentitol]

Structure (SMILES): COc1cccc(C2(C#N)CCN(Cc3cc4c(c5ccccc35)CN([C@H]3CCCC[C@@H]3O)C4=O)CC2)n1 [Example 6, 1-({2-[(1S,2S)-2-Hydroxycyclohexyl]-3-oxo-2,3-dihydro-1H-benzo[e]isoindol-5-yl}methyl)-4-(6-methoxypyridin-2-yl)piperidine-4-carbonitrile]
EC50 [3]: 65 nM

Structure (SMILES): CN(C)C(=O)Oc1cccc(N2Cc3c(cc(CN4CCC(F)(F)CC4)c4cccnc34)C2=O)c1 [Example 10, 3-{5-[(4,4-Difluoropiperidin-1-yl)methyl]-7-oxo-7,9-dihydro-8H-pyrrolo[3,4-h]quinolin-8-yl}phenyl dimethylcarbamate]
EC50 (IP Value (nM), Table 3, inflection point calculated from the FLIPR values): 2260 nM

Structure (SMILES): N#CC1(c2ccccc2Cl)CCN(Cc2cc3c(c4ccccc24)CN([C@H]2CCCC[C@@H]2O)C3=O)CC1 [Example 59, 4-(2-chlorophenyl)-1-({2-[(1S,2S)-2-hydroxycyclohexyl]-3-oxo-2,3-dihydro-1H-benzo[e]isoindol-5-yl}methyl)piperidine-4-carbonitrile]
EC50 [1]: 46 nM

Structure (SMILES): C#CC1(F)CCN(Cc2cc3c(c4ncccc24)CN(c2cccc(OC(=O)N(C)C)c2)C3=O)CC1 [Example 130, 3-{5-[(4-ethynyl-4-fluoropiperidin-1-yl)methyl]-7-oxo-7,9-dihydro-8H-pyrrolo[3,4-h]quinolin-8-yl}phenyl dimethylcarbamate]
EC50 (M1 Pot., Table 2, CHOnfat/hM1 cells, FLIPR): 1430 nM

EC50 [2]: 580 nM
Structure (SMILES): CC1c2c(cc(CN3CCN(c4ccccn4)CC3)c3cccnc23)C(=O)N1C1CCCCC1O (stereo not drawn) [Example 166, 8-(2-hydroxycyclohexyl)-9-methyl-5-[(4-pyridin-2-ylpiperazin-1-yl)methyl]-8,9-dihydro-7H-pyrrolo[3,4-h]quinolin-7-one]

Structure (SMILES): N#CC1(c2ccccc2)CCN(Cc2cc3c(c4ncccc24)CN([C@H]2CCCC[C@@H]2O)C3=O)CC1 [Example 136, 1-({8-[(1S,2S)-2-hydroxycyclohexyl]-7-oxo-8,9-dihydro-7H-pyrrolo[3,4-h]quinolin-5-yl}methyl)-4-phenylpiperidine-4-carbonitrile]
EC50 [2]: 14 nM
